According to patent US20260262643A1, “HERBICIDAL BENZOXAZINES” (FMC CORPORATION, priority 2022, published 2026):
Read-outs that look alike come from different tables or passages of the source.

Tests used:
[1] = tested on: corn; assay: Test A preemergence; format: in vivo, Zea mays; conditions: Zea mays, pre-emergence, 240 h; for Corn plant response rating (crop injury, 0 = no effect, 100 = complete kill) at 125 g/ha: 125 g ai/ha; for Corn plant response rating (crop injury, 0 = no effect, 100 = complete kill) at 500 g/ha: 500 g ai/ha
Summary of the method: (§1)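 Plants were grown in loam and sand and treated preemergence or postemergence (one- to two-leaf stage, 2–10 cm) with compound in solvent plus surfactant. Response was scored against untreated controls after 10 greenhouse days, where 0 means no effect and 100 complete control.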

[2] = tested on: foxtail, giant; assay: Test A preemergence; format: in vivo, Setaria faberi; conditions: Setaria faberi, pre-emergence, 240 h, read-out: Plant response rating, Foxtail, Giant; for pest or weed control at 125 g/ha: 125 g ai/ha; for pest or weed control at 500 g/ha: 500 g ai/ha
Summary of the method: as §1

[3] = tested on: goosegrass; assay: Test A preemergence; format: in vivo, Eleusine indica; conditions: Eleusine indica, pre-emergence, 240 h, read-out: Plant response rating, Goosegrass; for pest or weed control at 125 g/ha: 125 g ai/ha; for pest or weed control at 500 g/ha: 500 g ai/ha
Summary of the method: as §1

[4] = tested on: ragweed; assay: Test A preemergence; format: in vivo, Ambrosia artemisiifolia; conditions: Ambrosia artemisiifolia, pre-emergence, 240 h, read-out: Plant response rating, Ragweed; for pest or weed control at 125 g/ha: 125 g ai/ha; for pest or weed control at 500 g/ha: 500 g ai/ha
Summary of the method: as §1

[5] = tested on: ryegrass, Italian; assay: Test A preemergence; format: in vivo, Lolium multiflorum; conditions: Lolium multiflorum, pre-emergence, 240 h, read-out: Plant response rating, Ryegrass, Italian; for pest or weed control at 125 g/ha: 125 g ai/ha; for pest or weed control at 500 g/ha: 500 g ai/ha
Summary of the method: as §1

[6] = tested on: wheat; assay: Test A preemergence; format: in vivo, Triticum aestivum; conditions: Triticum aestivum, pre-emergence, 240 h, read-out: Plant response rating, Wheat; for plant injury at 125 g/ha: 125 g ai/ha; for plant injury at 500 g/ha: 500 g ai/ha
Summary of the method: as §1

[7] = tested on: blackgrass; assay: Test A postemergence; format: in vivo, Alopecurus myosuroides; conditions: Alopecurus myosuroides, post-emergence, 240 h; for pest or weed control at 125 g/ha: 125 g ai/ha; for pest or weed control at 500 g/ha: 500 g ai/ha
Summary of the method: as §1

[8] = tested on: corn; assay: Test A postemergence; format: in vivo, Zea mays; conditions: Zea mays, post-emergence, 240 h; for Corn plant response rating (crop injury, 0 = no effect, 100 = complete kill) at 500 g/ha: 500 g ai/ha
Summary of the method: as §1

[9] = tested on: foxtail, giant; assay: Test A postemergence; format: in vivo, Setaria faberi; conditions: Setaria faberi, post-emergence, 240 h; for pest or weed control at 125 g/ha: 125 g ai/ha; for pest or weed control at 500 g/ha: 500 g ai/ha
Summary of the method: as §1

[10] = tested on: goosegrass; assay: Test A postemergence; format: in vivo, Eleusine indica; conditions: Eleusine indica, post-emergence, 240 h; for pest or weed control at 125 g/ha: 125 g ai/ha; for pest or weed control at 500 g/ha: 500 g ai/ha
Summary of the method: as §1

[11] = tested on: pigweed, palmer; assay: Test A postemergence; format: in vivo, Amaranthus palmeri; conditions: Amaranthus palmeri, post-emergence, 240 h; for pest or weed control at 125 g/ha: 125 g ai/ha; for pest or weed control at 500 g/ha: 500 g ai/ha
Summary of the method: as §1

[12] = tested on: horseweed; assay: Test A postemergence; format: in vivo, Erigeron canadensis; conditions: Erigeron canadensis, post-emergence, 240 h; for pest or weed control at 125 g/ha: 125 g ai/ha; for pest or weed control at 500 g/ha: 500 g ai/ha
Summary of the method: as §1

[13] = tested on: barnyardgrass; assay: Test B flooded paddy test; format: in vivo, Echinochloa crus-galli; conditions: Echinochloa crus-galli, 312 h, 250 g ai/ha, Flood, 13 days, 0 to 100 scale (0 no effect, 100 complete control); read-out: Plant response rating, Barnyardgrass
Summary of the method: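 Two-leaf plants, 3 cm flood, in-water application, 13-day greenhouse hold, visual 0–100 rating vs untreated checks.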

[14] = visual injury after 10 days, 0 to 100 scale, 0 is no effect, 100 is complete control
[15] = postemergence, 10 days, visual injury, 0 to 100 scale (0 no effect, 100 complete control), read-out: Plant response rating, Blackgrass
[16] = postemergence, 10 days, visual injury, 0 to 100 scale (0 no effect, 100 complete control), read-out: Plant response rating, Foxtail, Giant
[17] = postemergence, 10 days, visual injury, 0 to 100 scale (0 no effect, 100 complete control), read-out: Plant response rating, Goosegrass
[18] = postemergence, 10 days, visual injury, 0 to 100 scale (0 no effect, 100 complete control), read-out: Plant response rating, Pigweed, Palmer
[19] = postemergence, 10 days, visual injury, 0 to 100 scale (0 no effect, 100 complete control), read-out: Plant response rating, Horseweed
[20] = 0 to 100 scale (0 no effect, 100 complete control), 10 days

In the case of `C[C@H]1CN(C(=O)c2cccc(-c3cnn(C)n3)c2)c2cccc(Cl)c2O1` [Compound 127, [(2S)-8-Chloro-2,3-dihydro-2-methyl-4H-1,4-benzoxazin-4-yl][3-(2-methyl-2H-1,2,3-triazol-4-yl)phenyl]methanone], the Corn plant response rating (crop injury, 0 = no effect, 100 = complete kill) at 125 g/ha [1, 14] is reported as 0%, the Corn plant response rating (crop injury, 0 = no effect, 100 = complete kill) at 500 g/ha [1, 14] is reported as 0% and the pest or weed control at 125 g/ha [2, 14] is reported as 90%. For the same molecule, the pest or weed control at 500 g/ha [2, 14] was 100%, the pest or weed control at 125 g/ha [3, 14] was 60% and the pest or weed control at 500 g/ha [3, 14] was 100%. For the same molecule, the pest or weed control at 125 g/ha [4, 14] was 0%, the pest or weed control at 500 g/ha [4, 14] was 0% and the pest or weed control at 125 g/ha [5, 14] was 20%. For the same molecule, the pest or weed control at 500 g/ha [5, 14] was 90%, the plant injury at 125 g/ha [6, 14] was 0% and the plant injury at 500 g/ha [6, 14] was 0%. The pest or weed control at 125 g/ha ([7]; postemergence, 10 days, 0 to 100 scale (0 no effect, 100 complete control), read-out: Blackgrass plant response rating) was 0%, the pest or weed control at 500 g/ha [7, 15] was 80% and the plant injury at 125 g/ha ([8]; 125 g ai/ha, postemergence, 10 days, 0 to 100 scale (0 no effect, 100 complete control), read-out: Corn plant response rating) was 20%. The Corn plant response rating (crop injury, 0 = no effect, 100 = complete kill) at 500 g/ha ([8]; postemergence, 10 days, visual injury, 0 to 100 scale (0 no effect, 100 complete control)) was 50%, the pest or weed control at 125 g/ha ([9]; postemergence, 10 days, 0 to 100 scale (0 no effect, 100 complete control), read-out: Foxtail, Giant plant response rating) was 50% and the pest or weed control at 500 g/ha [9, 16] was 90%. It also gave a pest or weed control at 125 g/ha ([10]; postemergence, 10 days, 0 to 100 scale (0 no effect, 100 complete control), read-out: Goosegrass plant response rating) of 10%, a pest or weed control at 500 g/ha [10, 17] of 70% and a pest or weed control at 125 g/ha ([11]; postemergence, 10 days, 0 to 100 scale (0 no effect, 100 complete control), read-out: Pigweed, Palmer plant response rating) of 60%. It also gave a pest or weed control at 500 g/ha [11, 18] of 90%, a pest or weed control at 125 g/ha ([12]; postemergence, 10 days, 0 to 100 scale (0 no effect, 100 complete control), read-out: Horseweed plant response rating) of 0% and a pest or weed control at 500 g/ha [12, 19] of 0%. It also gave a pest or weed control at 250 g/ha [13] of 0%.

For `COc1ccc(-n2cncn2)cc1C(=O)N1C[C@H](C)Oc2c(C)cccc21` [Compound 63, [(2S)-2,3-Dihydro-2,8-dimethyl-4H-1,4-benzoxazin-4-yl][2-methoxy-5-(1H-1,2,4-triazol-1-yl)phenyl]methanone], the Corn plant response rating (crop injury, 0 = no effect, 100 = complete kill) at 125 g/ha [1, 14] was 60%, the Corn plant response rating (crop injury, 0 = no effect, 100 = complete kill) at 500 g/ha [1, 20] was 80% and the pest or weed control at 125 g/ha [2, 14] was 100%. The pest or weed control at 500 g/ha [2, 20] was 100%, the pest or weed control at 125 g/ha [3, 14] was 100% and the pest or weed control at 500 g/ha [3, 20] was 100%. The pest or weed control at 125 g/ha [4, 14] was 0%, the pest or weed control at 500 g/ha [4, 20] was 40% and the pest or weed control at 125 g/ha [5, 14] was 90%. It also gave a pest or weed control at 500 g/ha [5, 20] of 100%, a plant injury at 125 g/ha [6, 14] of 40% and a plant injury at 500 g/ha [6, 20] of 90%. The pest or weed control at 125 g/ha [7, 15] was 70%, the pest or weed control at 500 g/ha ([7]; Postemergence, 0 to 100 scale, read-out: Plant response rating, Blackgrass) was 90% and the Corn plant response rating (crop injury, 0 = no effect, 100 = complete kill) at 125 g/ha ([8]; 125 g ai/ha, postemergence, 10 days, visual injury, 0 to 100 scale (0 no effect, 100 complete control)) was 80%. The Corn plant response rating (crop injury, 0 = no effect, 100 = complete kill) at 500 g/ha ([8]; Postemergence, 0 to 100 scale) was 80%, the pest or weed control at 125 g/ha [9, 16] was 90% and the pest or weed control at 500 g/ha ([9]; Postemergence, 0 to 100 scale, read-out: Plant response rating, Foxtail, Giant) was 90%. It also gave a pest or weed control at 125 g/ha [10, 17] of 70%, a pest or weed control at 500 g/ha ([10]; Postemergence, 0 to 100 scale, read-out: Plant response rating, Goosegrass) of 80% and a pest or weed control at 125 g/ha [11, 18] of 30%. The pest or weed control at 500 g/ha ([11]; Postemergence, 0 to 100 scale, read-out: Plant response rating, Pigweed, Palmer) was 40%, the pest or weed control at 125 g/ha [12, 19] was 20% and the pest or weed control at 500 g/ha ([12]; Postemergence, 0 to 100 scale, read-out: Plant response rating, Horseweed) was 40%. For the same molecule, the pest or weed control at 250 g/ha [13] was 0%.
